In ChEMBL document CHEMBL5241112, “Insights into the recent progress in the medicinal chemistry of pyranopyrimidine analogs” (RSC Med Chem, 2022):

test system: HeLa; test: Anticancer activity against human HeLa cells assessed as reduction in cell viability incubated for 48 hrs by MTT assay; format: functional, cell-based; details: not given

Row | Compound | IC50
1 | O=C1Nc2c(c(=O)oc3ccccc23)C(c2ccc(O)cc2)N1 (centres undefined) | 38 µM
2 | O=C1Nc2c(c(=O)oc3ccccc23)C(c2ccccc2O)N1 (centres undefined) | 38 µM
3 | COc1ccc(C2NC(=O)Nc3c2c(=O)oc2ccccc32)cc1OC (centres undefined) | 38 µM
4 | O=C1Nc2c(c(=O)oc3ccccc23)C(c2ccccc2)N1 (centres undefined) | 46 µM
5 | O=C1Nc2c(c(=O)oc3ccccc23)C(c2ccc(Br)cc2)N1 (centres undefined) | 59 µM
6 | O=C1Nc2c(c(=O)oc3ccccc23)C(c2cccc(O)c2)N1 (centres undefined) | 90 µM
7 | O=C1Nc2c(c(=O)oc3ccccc23)C(c2ccc(Cl)cc2)N1 (centres undefined) | 46 µM

test system: Klebsiella pneumoniae; test: Antimicrobial activity against Klebsiella pneumoniae assessed as diameter of inhibition zone at 1 mg/ml incubated for 48 hrs by agar disk diffusion method; format: functional; details: read-out: DIZ

Row | Compound | zone of inhibition at 1000 µg/mL
8 | COC(=O)C1=C(N)Oc2[nH]c(=S)[nH]c(=O)c2C1c1ccc(OC)cc1 (centres undefined) | 18 mm
9 | COC(=O)C1=C(N)Oc2[nH]c(=S)[nH]c(=O)c2C1c1cccc(Cl)c1 (centres undefined) | 11 mm
10 | COC(=O)C1=C(N)Oc2[nH]c(=S)[nH]c(=O)c2C1c1ccc(Cl)cc1 (centres undefined) | 3 mm
11 | COC(=O)C1=C(N)Oc2[nH]c(=S)[nH]c(=O)c2C1c1ccccc1 (centres undefined) | 21 mm

test system: Staphylococcus aureus; test: Antibacterial activity against Staphylococcus aureus NCIM 2654 assessed as diameter of inhibition zone incubated for 24 hrs by agar well diffusion method; format: functional; details: not given

Row | Compound | diameter of the inhibition zone (DIZ)
12 | Cc1n[nH]c2c1C(/C=C/c1ccccc1)c1c([nH]c(=O)[nH]c1=O)O2 (centres undefined) | 16 mm
13 | Cc1n[nH]c2c1C(c1cccc([N+](=O)[O-])c1)c1c([nH]c(=O)[nH]c1=O)O2 (centres undefined) | 12 mm

test system: Pseudomonas aeruginosa; test: Antimicrobial activity against Pseudomonas aeruginosa assessed as diameter of inhibition zone at 1 mg/ml incubated for 48 hrs by agar disk diffusion method; format: functional; details: read-out: DIZ

Row | Compound | zone of inhibition at 1000 µg/mL
14 | COC(=O)C1=C(N)Oc2[nH]c(=S)[nH]c(=O)c2C1c1ccc(OC)cc1 (centres undefined) | 16 mm
15 | COC(=O)C1=C(N)Oc2[nH]c(=S)[nH]c(=O)c2C1c1cccc(Cl)c1 (centres undefined) | 9 mm
16 | COC(=O)C1=C(N)Oc2[nH]c(=S)[nH]c(=O)c2C1c1ccc(Cl)cc1 (centres undefined) | 13 mm
17 | COC(=O)C1=C(N)Oc2[nH]c(=S)[nH]c(=O)c2C1c1ccccc1 (centres undefined) | 19 mm

test system: Escherichia coli; test: Antimicrobial activity against Escherichia coli assessed as diameter of inhibition zone at 1 mg/ml incubated for 48 hrs by agar disk diffusion method; format: functional; details: read-out: DIZ

Row | Compound | zone of inhibition at 1000 µg/mL
18 | COC(=O)C1=C(N)Oc2[nH]c(=S)[nH]c(=O)c2C1c1ccc(OC)cc1 (centres undefined) | 15 mm
19 | COC(=O)C1=C(N)Oc2[nH]c(=S)[nH]c(=O)c2C1c1cccc(Cl)c1 (centres undefined) | 8 mm
20 | COC(=O)C1=C(N)Oc2[nH]c(=S)[nH]c(=O)c2C1c1ccc(Cl)cc1 (centres undefined) | 7 mm
21 | COC(=O)C1=C(N)Oc2[nH]c(=S)[nH]c(=O)c2C1c1ccccc1 (centres undefined) | 17 mm

test system: Penicillium chrysogenum; test: Antifungal activity against Penicillium chrysogenum assessed as diameter of inhibition zone at 1 mg/ml incubated for 72 to 91 hrs by agar disk diffusion method; format: functional; details: time 72-91 hrs, read-out: DIZ

Row | Compound | zone of inhibition at 1000 µg/mL
22 | COC(=O)C1=C(N)Oc2[nH]c(=S)[nH]c(=O)c2C1c1ccc(OC)cc1 (centres undefined) | 12 mm
23 | COC(=O)C1=C(N)Oc2[nH]c(=S)[nH]c(=O)c2C1c1ccc(Cl)cc1 (centres undefined) | 0 mm

test system: Bacillus cereus; test: Antimicrobial activity against Bacillus cereus ATCC14579 assessed as diameter of inhibition zone at 20 mg/ml incubated for 24 hrs by disk diffusion method; format: functional; details: read-out: DIZ

Row | Compound | zone of inhibition at 20000 µg/mL
24 | N#CC1=C(N)Oc2[nH]c(=O)[nH]c(=O)c2C1c1cccc([N+](=O)[O-])c1 (centres undefined) | 14 mm
25 | N#CC1=C(N)Oc2[nH]c(=O)[nH]c(=O)c2C1c1ccc(Br)cc1 (centres undefined) | 4 mm

test system: HCT-116; test: Anticancer activity against human HCT-116 cells assessed as reduction in cell viability incubated for 96 hrs by MTT assay; format: functional, cell-based; details: HCT-116, 96 h

Row | Compound | IC50
26 | Nc1nn(-c2cc([N+](=O)[O-])ccc2[N+](=O)[O-])c2c1Oc1[nH]c(=O)[nH]c(=O)c1C2c1cccs1 (centres undefined) | 2.8 µM
27 | O=c1[nH]c2c(c(=O)[nH]1)C(c1cccs1)c1[nH]c(=S)n(-c3ccccc3)c(=O)c1O2 (centres undefined) | 2.76 µM
28 | Nc1ncnc2c1Oc1[nH]c(=O)[nH]c(=O)c1C2c1cccs1 (centres undefined) | 7.25 µM
29 | CONC1=C(C#N)Oc2[nH]c(=O)[nH]c(=O)c2C1c1cccs1 (centres undefined) | 6.38 µM

test system: Bacillus subtilis; test: Antibacterial activity against Bacillus subtilis assessed as diameter of inhibition zone; format: functional; details: not given

Row | Compound | diameter of the inhibition zone (DIZ)
30 | N#CC1=C(N)Oc2[nH]c(=O)[nH]c(=O)c2C1c1cccc([N+](=O)[O-])c1 (centres undefined) | 12 mm
31 | N#CC1=C(N)Oc2[nH]c(=O)[nH]c(=O)c2C1c1ccc(Br)cc1 (centres undefined) | 14 mm

target: Urease (Canavalia ensiformis, UniProt P07374); test: Inhibition of jack bean urease by phenol red method; details: not given
Sequence (P07374 whole entry): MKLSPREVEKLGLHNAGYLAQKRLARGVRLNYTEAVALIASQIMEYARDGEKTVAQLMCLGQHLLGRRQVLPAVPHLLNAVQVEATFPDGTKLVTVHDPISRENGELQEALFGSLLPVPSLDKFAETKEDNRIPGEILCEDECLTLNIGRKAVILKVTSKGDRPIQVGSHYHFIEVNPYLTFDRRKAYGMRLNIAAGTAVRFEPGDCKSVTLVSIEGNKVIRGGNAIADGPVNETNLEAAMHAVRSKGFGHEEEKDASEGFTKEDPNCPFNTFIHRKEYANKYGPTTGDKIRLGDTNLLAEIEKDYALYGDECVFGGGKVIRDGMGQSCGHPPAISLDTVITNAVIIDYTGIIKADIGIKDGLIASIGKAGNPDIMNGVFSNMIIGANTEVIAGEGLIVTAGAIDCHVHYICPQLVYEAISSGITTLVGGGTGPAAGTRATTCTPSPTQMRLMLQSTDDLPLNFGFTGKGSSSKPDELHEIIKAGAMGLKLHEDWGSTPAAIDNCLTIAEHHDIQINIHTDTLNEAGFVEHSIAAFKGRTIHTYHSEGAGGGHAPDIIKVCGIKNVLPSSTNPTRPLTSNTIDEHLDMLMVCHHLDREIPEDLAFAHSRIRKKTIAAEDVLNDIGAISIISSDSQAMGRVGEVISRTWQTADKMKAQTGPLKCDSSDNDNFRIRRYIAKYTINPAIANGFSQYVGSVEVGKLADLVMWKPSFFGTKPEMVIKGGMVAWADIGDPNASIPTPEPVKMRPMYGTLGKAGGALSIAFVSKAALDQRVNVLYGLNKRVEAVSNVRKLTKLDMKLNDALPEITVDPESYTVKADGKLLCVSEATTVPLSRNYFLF

Row | Compound | IC50
32 | N#CC1=C(N)Oc2[nH]c(=O)[nH]c(=O)c2C1c1cccc([N+](=O)[O-])c1 (centres undefined) | 98.9 µM
33 | N#CC1=C(N)Oc2[nH]c(=O)[nH]c(=O)c2C1c1ccc(Br)cc1 (centres undefined) | 51.3 µM

test system: Escherichia coli; test: Antimicrobial activity against Escherichia coli ATCC 14169 assessed as diameter of inhibition zone at 20 mg/ml incubated for 24 hrs by disk diffusion method; format: functional; details: read-out: DIZ

Row | Compound | zone of inhibition at 20000 µg/mL
34 | N#CC1=C(N)Oc2[nH]c(=O)[nH]c(=O)c2C1c1cccc([N+](=O)[O-])c1 (centres undefined) | 11 mm
35 | N#CC1=C(N)Oc2[nH]c(=O)[nH]c(=O)c2C1c1ccc(Br)cc1 (centres undefined) | 6 mm

test system: not listed separately; test: Antioxidant activity assessed as DPPH radical scavenging activity at 12 ug incubated for 30 mins by spectrophotometric analysis; format: functional; details: dose 12.0 µg

Row | Compound | Activity
36 | Cc1n[nH]c2c1C(/C=C/c1ccccc1)c1c([nH]c(=O)[nH]c1=O)O2 (centres undefined) | 90.3%
37 | Cc1n[nH]c2c1C(c1cccc([N+](=O)[O-])c1)c1c([nH]c(=O)[nH]c1=O)O2 (centres undefined) | 90.3%

test system: Klebsiella pneumoniae; test: Antimicrobial activity against Klebsiella pneumoniae UC57 assessed as diameter of inhibition zone at 20 mg/ml incubated for 24 hrs by disk diffusion method; format: functional; details: read-out: DIZ

Row | Compound | zone of inhibition at 20000 µg/mL
38 | N#CC1=C(N)Oc2[nH]c(=O)[nH]c(=O)c2C1c1cccc([N+](=O)[O-])c1 (centres undefined) | 6 mm
39 | N#CC1=C(N)Oc2[nH]c(=O)[nH]c(=O)c2C1c1ccc(Br)cc1 (centres undefined) | 3 mm

test system: MCF7; test: cells; format: functional, cell-based; details: Homo sapiens, MCF7, 96 h

Row | Compound | IC50
40 | Nc1nn(-c2cc([N+](=O)[O-])ccc2[N+](=O)[O-])c2c1Oc1[nH]c(=O)[nH]c(=O)c1C2c1cccs1 (centres undefined) | 3.17 µM
41 | O=c1[nH]c2c(c(=O)[nH]1)C(c1cccs1)c1[nH]c(=S)n(-c3ccccc3)c(=O)c1O2 (centres undefined) | 1.28 µM
42 | Nc1ncnc2c1Oc1[nH]c(=O)[nH]c(=O)c1C2c1cccs1 (centres undefined) | 0.87 µM
43 | CONC1=C(C#N)Oc2[nH]c(=O)[nH]c(=O)c2C1c1cccs1 (centres undefined) | 3.12 µM

test system: Staphylococcus aureus; test: Antimicrobial activity against Staphylococcus aureus NCTC7447 assessed as diameter of inhibition zone at 20 mg/ml incubated for 24 hrs by disk diffusion method; format: functional; details: read-out: DIZ

Row | Compound | zone of inhibition at 20000 µg/mL
44 | N#CC1=C(N)Oc2[nH]c(=O)[nH]c(=O)c2C1c1cccc([N+](=O)[O-])c1 (centres undefined) | 7 mm
45 | N#CC1=C(N)Oc2[nH]c(=O)[nH]c(=O)c2C1c1ccc(Br)cc1 (centres undefined) | 12 mm

test system: Staphylococcus aureus; test: Antimicrobial activity against Staphylococcus aureus assessed as diameter of inhibition zone at 1 mg/ml incubated for 48 hrs by agar disk diffusion method; format: functional; details: read-out: DIZ

Row | Compound | zone of inhibition at 1000 µg/mL
46 | COC(=O)C1=C(N)Oc2[nH]c(=S)[nH]c(=O)c2C1c1ccc(OC)cc1 (centres undefined) | 16 mm
47 | COC(=O)C1=C(N)Oc2[nH]c(=S)[nH]c(=O)c2C1c1cccc(Cl)c1 (centres undefined) | 10 mm
48 | COC(=O)C1=C(N)Oc2[nH]c(=S)[nH]c(=O)c2C1c1ccccc1 (centres undefined) | 12 mm

test system: Staphylococcus aureus; test: Antibacterial activity against Staphylococcus aureus assessed as diameter of inhibition zone; format: functional; details: not given

Row | Compound | diameter of the inhibition zone (DIZ)
49 | N#CC1=C(N)Oc2[nH]c(=O)[nH]c(=O)c2C1c1cccc([N+](=O)[O-])c1 (centres undefined) | 14 mm
50 | N#CC1=C(N)Oc2[nH]c(=O)[nH]c(=O)c2C1c1ccc(Br)cc1 (centres undefined) | 18 mm

test system: Pseudomonas aeruginosa; test: Antimicrobial activity against Pseudomonas aeruginosa ATCC 27853 assessed as diameter of inhibition zone at 20 mg/ml incubated for 24 hrs by disk diffusion method; format: functional; details: read-out: DIZ

Row | Compound | zone of inhibition at 20000 µg/mL
51 | N#CC1=C(N)Oc2[nH]c(=O)[nH]c(=O)c2C1c1cccc([N+](=O)[O-])c1 (centres undefined) | 11 mm
52 | N#CC1=C(N)Oc2[nH]c(=O)[nH]c(=O)c2C1c1ccc(Br)cc1 (centres undefined) | 4 mm

test system: Escherichia coli; test: Antibacterial activity against Escherichia coli assessed as diameter of inhibition zone; format: functional; details: not given

Row | Compound | diameter of the inhibition zone (DIZ)
53 | N#CC1=C(N)Oc2[nH]c(=O)[nH]c(=O)c2C1c1cccc([N+](=O)[O-])c1 (centres undefined) | 10 mm
54 | N#CC1=C(N)Oc2[nH]c(=O)[nH]c(=O)c2C1c1ccc(Br)cc1 (centres undefined) | 12 mm

test system: Aspergillus niger; test: Antifungal activity against Aspergillus niger assessed as diameter of inhibition zone at 1 mg/ml incubated for 72 to 91 hrs by agar disk diffusion method; format: functional; details: time 72-91 hrs, read-out: DIZ

Row | Compound | zone of inhibition at 1000 µg/mL
55 | COC(=O)C1=C(N)Oc2[nH]c(=S)[nH]c(=O)c2C1c1cccc(Cl)c1 (centres undefined) | 12 mm
56 | COC(=O)C1=C(N)Oc2[nH]c(=S)[nH]c(=O)c2C1c1ccccc1 (centres undefined) | 12 mm

test system: Bacillus cereus; test: Antimicrobial activity against Bacillus cereus assessed as diameter of inhibition zone at 1 mg/ml incubated for 48 hrs by agar disk diffusion method; format: functional; details: read-out: DIZ

Row | Compound | zone of inhibition at 1000 µg/mL
57 | COC(=O)C1=C(N)Oc2[nH]c(=S)[nH]c(=O)c2C1c1ccc(OC)cc1 (centres undefined) | 19 mm
58 | COC(=O)C1=C(N)Oc2[nH]c(=S)[nH]c(=O)c2C1c1cccc(Cl)c1 (centres undefined) | 12 mm
59 | COC(=O)C1=C(N)Oc2[nH]c(=S)[nH]c(=O)c2C1c1ccc(Cl)cc1 (centres undefined) | 10 mm
60 | COC(=O)C1=C(N)Oc2[nH]c(=S)[nH]c(=O)c2C1c1ccccc1 (centres undefined) | 18 mm

test system: Salmonella typhimurium; test: Antibacterial activity against Salmonella typhimurium assessed as diameter of inhibition zone; format: functional, Salmonella enterica subsp. enterica serovar Typhimurium; details: not given

Row | Compound | diameter of the inhibition zone (DIZ)
61 | N#CC1=C(N)Oc2[nH]c(=O)[nH]c(=O)c2C1c1cccc([N+](=O)[O-])c1 (centres undefined) | 14 mm
62 | N#CC1=C(N)Oc2[nH]c(=O)[nH]c(=O)c2C1c1ccc(Br)cc1 (centres undefined) | 16 mm

test system: MCF7; test: cells; details: Homo sapiens, MCF7, 48 h

Row | Compound | IC50
63 | O=C1Nc2c(c(=O)oc3ccccc23)C(c2ccc(O)cc2)N1 (centres undefined) | 38 µM
64 | O=C1Nc2c(c(=O)oc3ccccc23)C(c2ccccc2O)N1 (centres undefined) | 38 µM
65 | COc1ccc(C2NC(=O)Nc3c2c(=O)oc2ccccc32)cc1OC (centres undefined) | 38 µM
66 | O=C1Nc2c(c(=O)oc3ccccc23)C(c2ccccc2)N1 (centres undefined) | 33 µM
67 | O=C1Nc2c(c(=O)oc3ccccc23)C(c2ccc(Br)cc2)N1 (centres undefined) | 38 µM
68 | O=C1Nc2c(c(=O)oc3ccccc23)C(c2cccc(O)c2)N1 (centres undefined) | 38 µM
69 | O=C1Nc2c(c(=O)oc3ccccc23)C(c2ccc(Cl)cc2)N1 (centres undefined) | 33 µM
